Experimental data reported in ChEMBL document CHEMBL1201862, “PubChem BioAssay data set” (2004).
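Dose response: 5 concentrations. Exposure: 48 h. Format: 96-well plates. Endpoint: linear interpolation; highest concentration if not reached. The concentration for 50% growth inhibition is given as GI50.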 The source made the active and inactive calls. Cut-off read from the data, not from the text of the source: active = GI50 up to about 1.1 µM and inactive = higher.

Columns and labels:
Experiment in all cases: growth of human tumour cells (NCI), 48 h
A498 = system: A498
A549 = system: A549
CAKI-1 = system: CAKI-1
DMS-114 = system: DMS-114
HOP-18 = system: HOP-18
LXFL 529 = system: LXFL 529
M14 = system: M14
Malme-3M = system: Malme-3M
RXF 393 = system: RXF 393
SF-295 = system: SF-295
SK-MEL-2 = system: SK-MEL-2
SNB-19 = system: SNB-19
SNB-78 = system: SNB-78
SR = system: SR
U-251 = system: U-251
UACC-257 = system: UACC-257
Hs-578T = system: Hs-578T
MDA-MB-435 = system: MDA-MB-435
MDA-N = system: MDA-N
M19-MEL = system: M19-MEL

Measured: GI50

O=C(NN1C(=O)CS(=O)(=O)C1c1ccc(C(F)(F)F)cc1)c1ccncc1 (centres undefined)
inactive: A498 > 100 µM | A549 > 100 µM | CAKI-1 > 100 µM | DMS-114 > 100 µM | HOP-18 > 100 µM | LXFL 529 > 100 µM | M14 > 100 µM | Malme-3M > 100 µM | RXF 393 > 100 µM | SF-295 > 100 µM | SK-MEL-2 > 100 µM | SNB-19 > 100 µM | SNB-78 > 100 µM | SR > 100 µM | U-251 > 100 µM | UACC-257 > 100 µM

COc1ccc(-c2c(C#N)c(NC(=S)NC(=O)c3ccccc3)nc3c2CCCC3)cc1OC
inactive: A549 52.4 µM | CAKI-1 49.5 µM | Hs-578T 33.3 µM | M14 75.7 µM | MDA-MB-435 66.1 µM | MDA-N 65.3 µM | Malme-3M 29.8 µM | RXF 393 18.3 µM | SF-295 56.6 µM | SNB-19 68.2 µM | SR 59.2 µM | U-251 71.1 µM | UACC-257 46.6 µM

CC1(C)CCc2ccc(OCCC(=O)O)cc2O1
inactive: A549 > 100 µM | CAKI-1 > 100 µM | DMS-114 > 100 µM | LXFL 529 > 100 µM | M14 > 100 µM | M19-MEL > 100 µM | Malme-3M > 100 µM | SF-295 > 100 µM | SK-MEL-2 > 100 µM | SNB-78 > 100 µM | SR > 100 µM | U-251 > 100 µM

CCOC(=O)/C(O)=C1\C(=O)N(C)C(=O)C1c1ccc(OC)c(OC)c1 (centres undefined)
inactive: A498 > 100 µM | A549 > 100 µM | CAKI-1 > 100 µM | DMS-114 > 100 µM | HOP-18 > 100 µM | M19-MEL > 100 µM | Malme-3M > 100 µM | RXF 393 > 100 µM | SF-295 > 100 µM | SK-MEL-2 > 100 µM | SNB-19 > 100 µM | SNB-78 > 100 µM | U-251 > 100 µM | UACC-257 > 100 µM

CC1(C)N/C(=C\C=O)C(C)(C)N1O
inactive: A549 > 100 µM | CAKI-1 > 100 µM | Hs-578T > 100 µM | M14 > 100 µM | MDA-MB-435 > 100 µM | MDA-N > 100 µM | Malme-3M > 100 µM | RXF 393 > 100 µM | SF-295 > 100 µM | SK-MEL-2 > 100 µM | SNB-19 > 100 µM | SR > 100 µM | U-251 > 100 µM | UACC-257 > 100 µM
